Like-named read-outs stand apart in the source and are kept apart here. *1 amine or outer side, *2 acyl side, *3 side chain or, on linkers, in order; H or OH if unused. Where a SMILES comes first, the peptide text is derived from it. Bridges are numbered along the chain shown (N, C = ends). Roman numbers before positions name the chains, in order. [ ]: non-standard residue; d: D form. Actinocin(9to1) = Cc1c2oc3c(C)ccc(C(=O)[*:1])c3nc-2c(C(=O)[*:2])c(N)c1=O; NMeV = CN[C@H](C(=O)O)C(C)C; Sar = CNCC(=O)O
Assays:
[1] = system: quiescent IMR-90 human lung fibroblasts; assay: cells
Procedure: Quantitation of Cytotoxicity: A luciferase assay kit was used to quantitate the amount of ATP produced by cells in each well to measure cytotoxicity of the compounds. The assay utilizes the enzyme luciferase which catalyses a reaction of ATP and luciferin to form light. The light produced is measured to determine the amount of ATP produced by the cells in each well. The higher the cell mortality in each well, the less ATP, and consequently, the less light will be produced. […] Wells in rows one and two, which contained no compound, were controls.
Preparation of Quiescent Cells: A 96 well plate was plated at 0.8×10^4 cells/well in 200 μL of growth medium (MEM with Earle's salt) with IMR-90 human lung fibroblasts. The cells were incubated at 37° C. for four days.
The media was removed from the wells, and each well was washed twice with 200 μL of MEM with Earle's salt and no serum. 90 μL/well of MEM with Earle's salt media containing sodium pyruvate, non-essential amino acids, L-glutamine and 0.1% fetal bovine serum was added to each well, and the cells were incubated for one day at 37° C.
10 μL of carbonyl cyanide (a positive control for cytotoxicity) stock solutions were added to rows one and two to obtain concentrations of 0 μM, 0.003 μM, 0.01 μM, 0.03 μM, 0.1 μM, 0.3 μM, 1.0 μM, 3.0 μM, 10.0 μM, 30.0 μM, and 100.0 μM in wells 2 through 12. 10 μL of stock solution of test compounds were added to duplicate row to obtain concentrations of 0 μM, 0.003 μM, 0.01 μM, 0.03 μM, 0.1 μM, 0.3 μM, 1.0 μM, 3.0 μM, 10.0 μM, 30.0 μM, and 100.0 μM in wells 2 through 12. The first well in each row contained no cells. […] The cells were incubated with the test compounds for 24 hours, 48 hours, or 72 hours.

[2] = system: proliferating cancer cells; settings: cited from earlier work
[3] = read-out: IC50, 24 hours, quiescent IMR-90 human lung fibroblasts, 24 hours incubation
[4] = read-out: IC50, 48 hours, quiescent IMR-90 human lung fibroblasts, 48 hours incubation
[5] = read-out: IC50, 72 hours, quiescent IMR-90 human lung fibroblasts, 72 hours incubation
[6] = Homo sapiens, IMR-90, 24 h, read-out: IC50, 24 hours, quiescent IMR-90 human lung fibroblasts, 24 hours incubation
[7] = Homo sapiens, IMR-90, 48 h, read-out: IC50, 48 hours, quiescent IMR-90 human lung fibroblasts, 48 hours incubation
[8] = Homo sapiens, IMR-90, 72 h, read-out: IC50, 72 hours, quiescent IMR-90 human lung fibroblasts, 72 hours incubation

## O=c1[nH]cc(F)c(=O)[nH]1 [5-FU, 5-fluorouricil]
[1]; [3]
  IC50: > 10 µM
[1]; [4]
  IC50: > 10 µM
[1]; [5]
  IC50: > 10 µM

## Cc1c2oc3c(C)ccc(C(=O)N[C@@H]4C(=O)N[C@H](C(C)C)C(=O)N5CCC[C@H]5C(=O)N(C)CC(=O)N(C)[C@@H](C(C)C)C(=O)O[C@@H]4C)c3nc-2c(C(=O)N[C@@H]2C(=O)N[C@H](C(C)C)C(=O)N3CCC[C@H]3C(=O)N(C)CC(=O)N(C)[C@@H](C(C)C)C(=O)O[C@@H]2C)c(N)c1=O [Atinomycin D, actinomycin D] (I: T[dV]P[Sar][NMeV] / II: T[dV]P[Sar][NMeV]; ester I:1-I:C, II:1-II:C; linker I:N-II:N via Actinocin(9to1))
[1]
  time dependence of cytotoxicity against quiescent fibroblasts: time-dependent increases in cytotoxicity
[1]; [3]
  IC50: > 10 µM
[1]; [4]
  IC50: > 10 µM
[1]; [5]
  IC50: 3.1 µM

## COc1cccc2c1C(=O)c1c(O)c3c(c(O)c1C2=O)C[C@@](O)(C(=O)CO)C[C@@H]3O[C@H]1C[C@H](N)[C@H](O)[C@H](C)O1 [Doxorubicin, doxorubicin]
[1]
  time dependence of cytotoxicity against quiescent fibroblasts: time-dependent increases in cytotoxicity
[1]; [6]
  IC50: > 10 µM
[1]; [7]
  IC50: 5.3 µM
[1]; [8]
  IC50: 2.5 µM

## COc1cc([C@@H]2c3cc4c(cc3[C@@H](O[C@@H]3O[C@@H]5CO[C@@H](C)O[C@H]5[C@H](O)[C@H]3O)[C@H]3COC(=O)[C@H]23)OCO4)cc(OC)c1O [Etoposide, etoposide]
[1]; [6]
  IC50: > 10 µM
[1]; [7]
  IC50: > 10 µM
[1]; [8]
  IC50: > 10 µM

## Nc1ccn([C@@H]2O[C@H](CO)[C@@H](O)C2(F)F)c(=O)n1 [Gemcitabine, gemcitabine]
[1]; [6]
  IC50: > 10 µM
[1]; [7]
  IC50: > 10 µM
[1]; [8]
  IC50: > 10 µM

## CO[C@@]12[C@H](COC(N)=O)C3=C(C(=O)C(C)=C(N)C3=O)N1C[C@@H]1N[C@@H]12 [Mitomycin C, mitomycin C]
[1]; [3]
  IC50: > 10 µM
[1]; [4]
  IC50: > 10 µM
[1]; [5]
  IC50: 5 µM

## O=C1[O][Pt]2([NH][C@@H]3CCCC[C@H]3[NH]2)[O]C1=O [Oxaliplatin, oxaliplatin]
[1]; [3]
  IC50: > 10 µM
[1]; [4]
  IC50: > 10 µM
[1]; [5]
  IC50: > 10 µM

## CC(=O)O[C@H]1C(=O)[C@@]2(C)[C@H]([C@H](OC(=O)c3ccccc3)[C@]3(O)C[C@H](OC(=O)[C@H](O)[C@@H](NC(=O)c4ccccc4)c4ccccc4)C(C)=C1C3(C)C)[C@]1(OC(C)=O)CO[C@@H]1C[C@@H]2O [Paclitaxel, paclitaxel]
[1]; [6]
  IC50: > 10 µM
[1]; [7]
  IC50: > 10 µM
[1]; [8]
  IC50: 8.5 µM
[1]; human, 72 h
  concentration at which cytotoxic to quiescent fibroblasts: approximately 10 μM
[1]; [5]
  IC50: 10 µM
[2]
  concentration inhibiting cancer cell growth: low nanomolar concentration

## CCc1c2c(nc3ccc(O)cc13)-c1cc3c(c(=O)n1C2)COC(=O)[C@]3(O)CC [SN-38]
[1]; [3]
  IC50: 7.1 µM
[1]; [4]
  IC50: 8 µM
[1]; [5]
  IC50: 8.5 µM

## CC[C@]1(O)C[C@@H]2CN(CCc3c([nH]c4ccccc34)[C@@](C(=O)OC)(c3cc4c(cc3OC)N(C)[C@H]3[C@@](O)(C(=O)OC)[C@H](OC(C)=O)[C@]5(CC)C=CCN6CC[C@]43[C@@H]65)C2)C1 [Vinblastine, vinblastine]
[1]; [6]
  IC50: > 10 µM
[1]; [7]
  IC50: > 10 µM
[1]; [8]
  IC50: > 10 µM

## CC[C@]1(O)C[C@H]2CN(CCc3c([nH]c4ccccc34)[C@@](C(=O)OC)(c3cc4c(cc3OC)N(C=O)[C@H]3[C@@](O)(C(=O)OC)[C@H](OC(C)=O)[C@]5(CC)C=CCN6CC[C@]43[C@@H]65)C2)C1 [Vincristine, vincristine]
[1]; [6]
  IC50: > 10 µM
[1]; [7]
  IC50: > 10 µM
[1]; [8]
  IC50: > 10 µM

## C[C@@H]1C[C@@H]([C@H](O)CC2CC(=O)NC(=O)C2)C(=O)[C@@H](C)C1 [cycloheximide]
[1]; Homo sapiens, IMR-90, 24 h, read-out: IC50, 24 hours
  IC50: > 10 µM
[1]; Homo sapiens, IMR-90, 48 h, read-out: IC50, 48 hours
  IC50: > 10 µM
[1]; Homo sapiens, IMR-90, 72 h, read-out: IC50, 72 hours
  IC50: > 10 µM

— patent US20060134602A1, “Methods of identifying cytotoxic effects in quiescent cells” (priority 2004, published 2006)
